Data taken from PubChem BioAssay AID588774 (The Scripps Research Institute Molecular Screening Center, 2011).
Active and inactive are the calls of the source.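 Rule for the calls: active = target enzyme inhibited at least 50% at a set dose, and selective over every off-target enzyme by a set factor; inactive = weaker inhibition or too little selectivity.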

Assays:
ABHD3 = test: competitive ABPP of pPAFAH versus proteome hydrolases – biochemical, gel-based, FP-Rh fluorescence, complex proteome, SAR compounds, selectivity assay for pPAFAH inhibitor project, SAR follow-up (AID 588774); conditions: stronger effect = higher value;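 for inhibition: 0% = DMSO-only band intensity and 100% = blank gel background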
[1] = molecular target: Platelet-activating factor acetylhydrolase (Mus musculus) (UniProt Q60963); test: as above; conditions: pPAFAH, stronger effect = higher value
LYPLA2 = test: as above; conditions: stronger effect = higher value
MW 30 kDa = test: as above; conditions: at 1 µM, stronger effect = higher value
LYPLA1 = test: as above; conditions: stronger effect = higher value
MW 32 kDa = test: as above; conditions: at 1 µM, stronger effect = higher value
[2] = molecular target: Monoglyceride lipase (Mus musculus) (UniProt O35678); test: as above; conditions: MAGL, stronger effect = higher value
FAAH = test: as above; conditions: stronger effect = higher value
ABHD4 = ABHD4 (UniProt Q8VD66); test: as above; conditions: stronger effect = higher value
[3] = as above; conditions: at 10 µM
ABHD6 = test: as above; conditions: stronger effect = higher value
pPAFAH = test: as above; conditions: anti-targets inhibited, at 10 µM

Chain of Platelet-activating factor acetylhydrolase (Mus musculus) (Q60963 whole entry, looked up): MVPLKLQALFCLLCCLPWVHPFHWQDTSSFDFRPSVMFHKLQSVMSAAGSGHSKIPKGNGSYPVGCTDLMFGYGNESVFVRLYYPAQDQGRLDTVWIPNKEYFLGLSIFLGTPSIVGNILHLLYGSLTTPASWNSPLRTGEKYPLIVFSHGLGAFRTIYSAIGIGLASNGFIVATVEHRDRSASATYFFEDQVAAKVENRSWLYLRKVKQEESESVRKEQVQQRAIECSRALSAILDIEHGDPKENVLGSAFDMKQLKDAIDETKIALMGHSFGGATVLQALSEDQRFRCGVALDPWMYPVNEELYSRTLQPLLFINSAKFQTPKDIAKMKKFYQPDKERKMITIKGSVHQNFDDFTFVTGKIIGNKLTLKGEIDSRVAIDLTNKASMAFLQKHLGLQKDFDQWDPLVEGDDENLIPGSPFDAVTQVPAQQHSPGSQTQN
Chain of Monoglyceride lipase (Mus musculus) (O35678 whole entry, looked up): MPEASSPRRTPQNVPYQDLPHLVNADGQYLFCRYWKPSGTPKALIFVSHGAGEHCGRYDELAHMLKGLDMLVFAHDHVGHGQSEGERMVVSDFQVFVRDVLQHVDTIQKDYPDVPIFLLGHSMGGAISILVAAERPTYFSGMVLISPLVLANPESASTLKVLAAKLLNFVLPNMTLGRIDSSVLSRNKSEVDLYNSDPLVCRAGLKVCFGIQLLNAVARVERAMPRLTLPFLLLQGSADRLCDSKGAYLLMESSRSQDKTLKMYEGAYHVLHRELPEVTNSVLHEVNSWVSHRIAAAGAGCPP
Chain of ABHD4 (Q8VD66 whole entry, looked up): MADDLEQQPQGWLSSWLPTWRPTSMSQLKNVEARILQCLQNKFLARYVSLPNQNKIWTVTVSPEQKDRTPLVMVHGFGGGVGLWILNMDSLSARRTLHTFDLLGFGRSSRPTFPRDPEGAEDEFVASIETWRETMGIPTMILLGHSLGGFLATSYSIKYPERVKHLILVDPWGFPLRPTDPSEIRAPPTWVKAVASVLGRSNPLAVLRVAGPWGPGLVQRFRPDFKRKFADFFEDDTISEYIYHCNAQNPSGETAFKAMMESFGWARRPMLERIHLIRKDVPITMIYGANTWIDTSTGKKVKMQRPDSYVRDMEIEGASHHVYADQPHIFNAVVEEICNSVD

With `COc1ccc(-c2cnn(C(=O)N3CCN(c4cc(C)nc5ccccc45)CC3)n2)cc1` the inhibition (ABHD3; at 10 µM) was 100% (inactive), the inhibition (ABHD3; inhibition, at 1 µM) was 86% and the inhibition ([1]; at 10 µM) was 96%. For the same compound, the inhibition ([1]; inhibition, at 0.1 µM) was 85%, the inhibition ([1]; inhibition, at 1 µM) was 88% and the inhibition (LYPLA2; at 10 µM) was 95% (inactive). For the same compound, the inhibition (LYPLA2; inhibition, at 1 µM) was 56%, the inhibition (MW 30 kDa) was 50% and the inhibition (LYPLA1; at 10 µM) was 92% (inactive). For the same compound, the inhibition (LYPLA1; inhibition, at 0.1 µM) was 4%, the inhibition (LYPLA1; inhibition, at 1 µM) was 74% and the inhibition (MW 32 kDa) was 52%. The inhibition ([2]; at 10 µM) was 45% (inactive), the inhibition ([2]; inhibition, at 1 µM) was 35% and the inhibition (FAAH; at 10 µM) was 86%. For the same compound, the inhibition (FAAH; inhibition, at 0.1 µM) was 60%, the inhibition (FAAH; inhibition, at 1 µM) was 83% and the inhibition (ABHD4; at 10 µM) was 100% (inactive). For the same compound, the inhibition (ABHD4; inhibition, at 1 µM) was 86%, the anti-target count ([3]; ABHD3, anti-targets inhibited) was 8 and the anti-target count ([3]; ABHD4, anti-targets inhibited) was 8. For the same compound, the anti-target count ([3]; ABHD6, anti-targets inhibited) was 8, the anti-target count ([3]; FAAH, anti-targets inhibited) was 8 and the anti-target count ([3]; LYPLA1, anti-targets inhibited) was 8. The anti-target count ([3]; LYPLA2, anti-targets inhibited) was 8, the anti-target count ([3]; MAGL, anti-targets inhibited) was 8 and the inhibition (ABHD6; at 10 µM) was 70% (inactive). It also gave an inhibition (ABHD6; inhibition, at 0.1 µM) of 12%, an inhibition (ABHD6; inhibition, at 1 µM) of 58% and an anti-target count (pPAFAH) of 8.
